What was measured:
Format in all cases: in vivo
[1] = tested on: M. incognita (Root Knot Nematode) larvae; assay: Evaluation of test compounds against M. incognita larvae in microtiter plate wells (movement score); settings: larvae scored for movement after 20-24 hours; also: key: A score of '9' indicates inactive worms with a straight, sticklike morphology; A score of '8' indicates inactive worms with a limp, curled or curved morphology; A score of '7' indicates dead/paralyzed worms after 72 hours
Method: Evaluation of Test Compounds Against M. incognita (Root Knot Nematode)
Newly emerged M. incognita larvae are suspended in S Medium (buffered salt solution) to a concentration of 50-65 worms per 50 μl. 50 μl of the worm suspension are pipetted into microtiter plate wells containing the test compounds. The plates are then covered with plactic plate sealers to reduce loss of volume by evaporation. After 20-24 hours of incubation, the larvae are scored for movement. Wells containing obviously dead/paralyzed larvae are scored as positive. […] A score of “7” indicates dead/paralyzed worms after […].

[2] = tested on: C. elegans (Bristol strain); assay: Evaluation of test compounds against C. elegans (motility, 96-well plate); parameters: key: 9=complete kill in 4 hours; 8=complete kill in 24 hours; 7=markedly reduced motility in approximately 95% of worms in 24 hours; 0=normal motility, same as controls; settings: motility at 4 and 24 hours
Method: Evaluation of Test Compounds Against C. elegans Cultures of C. elegans (Bristol strain from J. Lewis) are maintained on E. coli lawns on NG Agar Plates at 20° C. New cultures are established weekly. Nematodes for testing are washed from cultures using Na buffer. Compounds are dissolved in 80% acetone. The test material is micropipetted (25 μl) into a single well of a 96-well sterile tissue culture plate and the solvent allowed to evaporate. A freshly prepared volume (50 μl) of C. elegans in Na buffer is micropipetted into each treated well and several control wells per plate. Plates are incubated at 20° C. Observations for efficacy are made under a dissecting microscope at 4 and 24 hours post-immersion. Immediately prior to reading the plate, it is gently tapped to stimulate the movement of the worms. Activity is judged subjectively, but semi-quantitatively, based on the drug effects on motility of the adults and larvae.

[3] = tested on: Spodoptera eridania, 2nd instar larvae, southern armyworm (SAW); assay: Southern armyworm (SAW) leaf dip test; parameters: key: 0 = no effect; 1 = 10-25% kill; 2 = 26-35% kill; 3 = 36-45% kill; 4 = 46-55% kill; 5 = 56-65% kill; 6 = 66-75% kill; 7 = 76-85% kill; 8 = 86-99% kill; 9 = 100% kill
Method: (§1) Test solutions are prepared by dissolving the test compound in a 35% acetone in water mixture to give a concentration of 10,000 ppm. Subsequent dilutions are made with water as needed.
Spodoptera eridania, 2nd Instar Larvae, Southern Armyworm (SAW)
A Sieva lima bean leaf expanded to 7-8 cm in length is dipped in the test solution with agitation for 3 seconds and allowed to dry in a hood. The leaf is then placed in a 100×10 mm petri dish containing a damp filter paper on the bottom and ten 2nd instar caterpillars. At 5 days, observations are made of mortality, reduced feeding, or any interference with normal molting.

[4] = tested on: Diabrotica virgifera virgifera Leconte, 2nd instar western corn rootworm (WCR); assay: Western corn rootworm (WCR) soil test; parameters: key: 0 = no effect; 1 = 10-25% kill; 2 = 26-35% kill; 3 = 36-45% kill; 4 = 46-55% kill; 5 = 56-65% kill; 6 = 66-75% kill; 7 = 76-85% kill; 8 = 86-99% kill; 9 = 100% kill
Method: Test solutions are prepared by dissolving the test compound in a 35% acetone in water mixture to give a concentration of 10,000 ppm. Subsequent dilutions are made with water as needed. Diabrotica virgifera virgifera Leconte, 2nd Instar Western Corn Rootworm (WCR) One cc of fine talc is placed in a 30 mL wide-mouth screw-top glass jar. One mL of the appropriate acetone test solution is pipetted onto the talc so as to provide 1.25 mg of active ingredient per jar. The jars are set under a gentle air flow until the acetone is evaporated. The dried talc is loosened, 1 cc of millet seed is added to serve as food for the insects and 25 mL of moist soil is added to each jar. The jar is capped and the contents thoroughly mixed mechanically. Following this, ten 2nd instar rootworms are added to each jar and the jars are loosely capped to allow air exchange for the larvae. The treatments are held for 5 days when mortality counts are made. Missing larvae are presumed dead, since they decompose rapidly and cannot be found. The concentrations of active ingredient used in this test correspond approximately to 50 kg/ha. [table]

[5] = tested on: Tetranychus urticae (OP-resistant strain), 2-spotted spider mite (TSM); assay: 2-spotted spider mite (TSM) plant dip test; parameters: key: 0 = no effect; 1 = 10-25% kill; 2 = 26-35% kill; 3 = 36-45% kill; 4 = 46-55% kill; 5 = 56-65% kill; 6 = 66-75% kill; 7 = 76-85% kill; 8 = 86-99% kill; 9 = 100% kill; settings: mortality after 2 days
Method: as §1
Tetranychus urticae (OP-resistant strain), 2-spotted Spider Mite (TSM)
Sieva lima bean plants with primary leaves expanded to 7-8 cm are selected and cut back to one plant per pot. A small piece is cut from an infested leaf taken from the main colony and placed on each leaf of the test plants. This is done about 2 hours before treatment to allow the mites to move over to the test plant to lay eggs. The size of the cut, infested leaf is varied to obtain about 100 mites per leaf. At the time of test treatment, the piece of leaf used to transfer the mites is removed and discarded. The newly-infested plants are dipped in the test solution for 3 seconds with agitation and set in the hood to dry. After 2 days, one leaf is removed and mortality counts are made.

[6] = tested on: Aphis gossypii, cotton aphid (CA); assay: Cotton aphid (CA) cotyledon dip test; parameters: key: 0 = no effect; 1 = 10-25% kill; 2 = 26-35% kill; 3 = 36-45% kill; 4 = 46-55% kill; 5 = 56-65% kill; 6 = 66-75% kill; 7 = 76-85% kill; 8 = 86-99% kill; 9 = 100% kill; settings: mortality after 5 days
Method: Test solutions are prepared by dissolving the test compound in a 35% acetone in water mixture to give a concentration of 10,000 ppm. Subsequent dilutions are made with water as needed. Aphis gossypii, Cotton Aphid (CA) Cotton plants at the cotyledon stage are selected and cut back to one plant per pot. A heavily infested leaf is taken from the main colony and placed on top of each cotyledon. The aphids are allowed to transfer to the host plant overnight. At the time of test treatment, the leaf used to transfer the aphids is removed and discarded. The cotyledons are dipped in the test solution and allowed to dry. After 5 days, mortality counts are made. [table]

| SMILES | M. incognita (150 ppm) score [1] | Rating Against C. elegans (150 ppm) [2] | SAW (300 ppm) rating [3] | WCR (50 ppm) rating [4] | TSM (300 ppm) rating [5] | CA (300 ppm) rating [6] |
| --- | --- | --- | --- | --- | --- | --- |
| O=C(O)CSC(C[N+](=O)[O-])c1ccc(F)cc1 (stereo not shown) [Example 63] | 9 | 9 | 0 | 0 | 0 | 0 |
| O=C(O)CSC(C[N+](=O)[O-])c1ccc2c(c1)OCO2 (stereo not shown) [Example 64] | 9 | 9 | 0 | 0 | 9 (9 = 100% kill) | 0 |
| Cc1ccc(C(C[N+](=O)[O-])SCC(=O)O)cc1 (stereo not shown) [Example 65] | 9 | 9 | 0 | 9 (9 = 100% kill) | 0 | 0 |
| CC(C)c1ccc(C(C[N+](=O)[O-])SCC(=O)O)cc1 (stereo not shown) [Example 66] | 9 | 9 | 0 | 8 (8 = 86-99% kill) | 0 | 0 |
| C=CCSC(C[N+](=O)[O-])c1ccc(Cl)cc1 (stereo not shown) [Example 77] | 0 | 0 | 0 | 0 | 3 (3 = 36-45% kill) |  |
| COC(=O)CSC(C[N+](=O)[O-])c1ccc(OC)cc1OC (stereo not shown) [Example 79] | 0 | 7 |  |  |  |  |
| COc1ccc(C(C[N+](=O)[O-])SCC(=O)N2CCOCC2)c(OC)c1 (stereo not shown) [Example 80] | 0 | 7 |  |  |  |  |
| COc1ccc(C(C[N+](=O)[O-])SCc2ccccc2)c(OC)c1 (stereo not shown) [Example 81] | 0 | 7 |  |  |  |  |
| NC(CSC(C[N+](=O)[O-])c1ccccc1)C(=O)O (stereo not shown) [Example 83] | 9 | 9 |  |  |  |  |
| COc1ccc(C(C[N+](=O)[O-])SCC(N)C(=O)O)c(OC)c1 (stereo not shown) [Example 84] | 0 | 9 |  |  |  |  |
| O=[N+]([O-])CC(SCC(O)CO)c1ccccc1 (stereo not shown) [Example 85] | 9 | 7 |  |  |  |  |
| COC(=O)CSC(C[N+](=O)[O-])c1ccc(OC)c(OC)c1 (stereo not shown) [Example 86] | 0 | 0 |  |  |  |  |
| COc1cc(OC)cc(C(C[N+](=O)[O-])SCC(O)CO)c1 (stereo not shown) [Example 87] | 0 | 0 |  |  |  |  |
| COC(=O)CSC(c1ccccc1)C(C)[N+](=O)[O-] (stereo not shown) [Example 150] |  |  | 0 | 6 (6 = 66-75% kill) | 0 | 0 |
| CCOC(=O)CSC(c1ccccc1)C(C)[N+](=O)[O-] (stereo not shown) [Example 151] |  |  | 0 | 0 | 0 | 0 |
| COC(=O)CSC(C[N+](=O)[O-])c1ccc(F)c(F)c1 (stereo not shown) [Example 152] |  |  | 0 | 7 (7 = 76-85% kill) | 0 | 0 |
| CCOC(=O)CSC(C[N+](=O)[O-])c1ccc(F)c(F)c1 (stereo not shown) [Example 153] |  |  | 0 | 0 | 0 | 0 |
| CCCOC(=O)CSC(C[N+](=O)[O-])c1ccc(F)c(F)c1 (stereo not shown) [Example 154] |  |  | 0 | 0 | 0 | 0 |
| CC(C)OC(=O)CSC(C[N+](=O)[O-])c1ccc(F)c(F)c1 (stereo not shown) [Example 155] |  |  | 0 | 0 | 3 (3 = 36-45% kill) | 0 |
| O=[N+]([O-])CC(SCc1ccco1)c1ccccc1 (stereo not shown) [Example 156] |  |  | 0 | 0 | 0 | 0 |
| O=[N+]([O-])CC(SCc1ccco1)c1ccc2c(c1)OCO2 (stereo not shown) [Example 159] |  |  | 0 | 0 | 0 | 0 |
| CC(C(SCC(=O)O)c1ccccc1)[N+](=O)[O-] (stereo not shown) [Example 161] |  |  | 0 | 4 (4 = 46-55% kill) | 0 | 0 |
| CCCCOC(=O)CSC(c1ccccc1)C(C)[N+](=O)[O-] (stereo not shown) [Example 162] |  |  | 0 | 6 (6 = 66-75% kill) | 0 | 0 |
